Columns and labels:
Assay in all cases: Competitive isoTOP-ABPP, cell lysates;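 on isoTOP-ABPP reactivity profile ratio, Q15084 C190: Heavy/light ratio DMSO over fragment-treated so higher means more cysteine engagement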;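 on isoTOP-ABPP reactivity profile ratio, Q99873 C109: Heavy/light ratio DMSO over fragment-treated so higher means more cysteine engagement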
Assay type in all cases: binding
[1] = target: XPO1 C34 (O14980) (Homo sapiens, UniProt O14980); conditions: 500 μm
[2] = target: DCUN1D1 C115 (Q96GG9) (Homo sapiens, UniProt Q96GG9); conditions: 500 μm, in-vitro_ramos
DCUN1D1 C115 (Q96GG9), sequence (Q96GG9 whole entry): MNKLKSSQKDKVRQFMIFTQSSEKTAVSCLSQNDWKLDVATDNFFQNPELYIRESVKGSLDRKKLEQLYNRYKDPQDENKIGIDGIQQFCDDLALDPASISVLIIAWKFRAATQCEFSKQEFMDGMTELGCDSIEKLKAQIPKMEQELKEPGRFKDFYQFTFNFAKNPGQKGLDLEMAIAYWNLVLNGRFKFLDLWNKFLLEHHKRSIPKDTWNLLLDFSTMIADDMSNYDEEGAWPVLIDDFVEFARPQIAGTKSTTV

[3] = target: STAT3 C259 (P40763) (Homo sapiens, UniProt P40763); conditions: 500 μm
STAT3 C259 (P40763), sequence (P40763 whole entry, the tested form may be a part): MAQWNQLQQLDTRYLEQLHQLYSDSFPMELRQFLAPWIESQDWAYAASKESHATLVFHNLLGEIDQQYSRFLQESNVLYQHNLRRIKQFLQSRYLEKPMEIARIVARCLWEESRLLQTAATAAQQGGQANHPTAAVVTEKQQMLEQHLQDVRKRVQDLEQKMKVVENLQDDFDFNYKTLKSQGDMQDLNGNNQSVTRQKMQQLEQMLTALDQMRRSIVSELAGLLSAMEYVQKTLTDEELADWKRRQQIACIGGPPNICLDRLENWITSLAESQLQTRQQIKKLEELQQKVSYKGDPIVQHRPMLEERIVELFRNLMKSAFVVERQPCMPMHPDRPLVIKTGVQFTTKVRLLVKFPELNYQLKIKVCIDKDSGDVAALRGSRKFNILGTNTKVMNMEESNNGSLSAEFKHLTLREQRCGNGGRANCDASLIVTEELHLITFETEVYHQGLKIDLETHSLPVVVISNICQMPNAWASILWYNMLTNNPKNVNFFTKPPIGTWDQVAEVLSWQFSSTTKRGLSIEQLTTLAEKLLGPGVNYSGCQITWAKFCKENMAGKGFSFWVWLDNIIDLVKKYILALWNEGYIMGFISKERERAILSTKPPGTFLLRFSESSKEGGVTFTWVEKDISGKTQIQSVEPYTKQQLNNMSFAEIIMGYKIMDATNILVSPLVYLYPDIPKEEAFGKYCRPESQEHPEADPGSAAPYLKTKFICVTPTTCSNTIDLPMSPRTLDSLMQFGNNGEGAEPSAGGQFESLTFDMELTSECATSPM

[4] = target: T1, PDIA6 C190 (Q15084) (Homo sapiens, UniProt Q15084); conditions: 500 μm;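 on isoTOP-ABPP reactivity profile ratio, Q15084 C190: Heavy/light ratio DMSO over fragment-treated so higher means more cysteine engagement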
T1 sequence (Q15084 20-440): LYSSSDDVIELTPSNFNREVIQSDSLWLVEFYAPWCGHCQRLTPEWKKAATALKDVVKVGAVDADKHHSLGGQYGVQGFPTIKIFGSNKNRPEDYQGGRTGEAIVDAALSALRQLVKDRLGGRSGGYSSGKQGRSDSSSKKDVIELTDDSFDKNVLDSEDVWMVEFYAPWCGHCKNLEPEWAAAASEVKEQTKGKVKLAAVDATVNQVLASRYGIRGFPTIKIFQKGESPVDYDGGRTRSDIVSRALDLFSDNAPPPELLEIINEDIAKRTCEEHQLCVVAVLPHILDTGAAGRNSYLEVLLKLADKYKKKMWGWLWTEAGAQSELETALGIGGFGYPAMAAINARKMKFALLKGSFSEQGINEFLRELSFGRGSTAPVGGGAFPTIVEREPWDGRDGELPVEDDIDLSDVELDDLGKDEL

[5] = target: SMARCC2 C145 (Q8TAQ2) (Homo sapiens, UniProt Q8TAQ2); conditions: 500 μm
SMARCC2 C145 (Q8TAQ2), sequence (Q8TAQ2 whole entry): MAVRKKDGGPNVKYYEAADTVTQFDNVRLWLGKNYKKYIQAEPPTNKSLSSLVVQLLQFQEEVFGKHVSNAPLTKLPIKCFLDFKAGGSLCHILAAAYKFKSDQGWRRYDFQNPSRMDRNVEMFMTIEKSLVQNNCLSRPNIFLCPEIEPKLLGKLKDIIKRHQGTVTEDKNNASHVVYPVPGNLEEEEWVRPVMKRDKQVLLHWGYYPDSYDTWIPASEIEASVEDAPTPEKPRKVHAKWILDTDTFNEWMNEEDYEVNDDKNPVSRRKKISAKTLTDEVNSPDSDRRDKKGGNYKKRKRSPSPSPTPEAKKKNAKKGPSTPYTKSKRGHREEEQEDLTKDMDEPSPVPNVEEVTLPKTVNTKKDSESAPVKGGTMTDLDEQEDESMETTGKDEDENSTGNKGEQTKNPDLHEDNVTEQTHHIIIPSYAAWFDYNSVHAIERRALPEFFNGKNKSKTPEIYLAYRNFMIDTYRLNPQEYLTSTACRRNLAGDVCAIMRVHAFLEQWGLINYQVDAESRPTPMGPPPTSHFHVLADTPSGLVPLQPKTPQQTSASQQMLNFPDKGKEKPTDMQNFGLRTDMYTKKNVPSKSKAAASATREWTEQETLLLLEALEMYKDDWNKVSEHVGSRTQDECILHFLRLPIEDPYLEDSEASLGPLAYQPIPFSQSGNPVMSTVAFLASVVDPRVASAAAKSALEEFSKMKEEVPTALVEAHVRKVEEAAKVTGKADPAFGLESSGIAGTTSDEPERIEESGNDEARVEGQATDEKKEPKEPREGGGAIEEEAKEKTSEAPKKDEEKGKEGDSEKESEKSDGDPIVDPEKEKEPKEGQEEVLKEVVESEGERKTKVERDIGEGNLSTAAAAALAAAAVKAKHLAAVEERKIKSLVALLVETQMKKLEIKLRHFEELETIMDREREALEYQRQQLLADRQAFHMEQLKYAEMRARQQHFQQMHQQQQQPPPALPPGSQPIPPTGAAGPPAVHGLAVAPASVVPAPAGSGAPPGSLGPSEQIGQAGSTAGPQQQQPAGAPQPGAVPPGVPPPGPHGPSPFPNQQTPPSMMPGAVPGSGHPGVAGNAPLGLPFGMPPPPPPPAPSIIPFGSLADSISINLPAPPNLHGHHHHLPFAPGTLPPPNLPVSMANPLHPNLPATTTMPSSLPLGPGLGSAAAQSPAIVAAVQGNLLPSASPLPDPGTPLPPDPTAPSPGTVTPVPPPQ

[6] = target: T2, ADA C75 (P00813) (Homo sapiens, UniProt P00813); conditions: 500 μm, in-vitro_ramos
T2 sequence (P00813 1-363): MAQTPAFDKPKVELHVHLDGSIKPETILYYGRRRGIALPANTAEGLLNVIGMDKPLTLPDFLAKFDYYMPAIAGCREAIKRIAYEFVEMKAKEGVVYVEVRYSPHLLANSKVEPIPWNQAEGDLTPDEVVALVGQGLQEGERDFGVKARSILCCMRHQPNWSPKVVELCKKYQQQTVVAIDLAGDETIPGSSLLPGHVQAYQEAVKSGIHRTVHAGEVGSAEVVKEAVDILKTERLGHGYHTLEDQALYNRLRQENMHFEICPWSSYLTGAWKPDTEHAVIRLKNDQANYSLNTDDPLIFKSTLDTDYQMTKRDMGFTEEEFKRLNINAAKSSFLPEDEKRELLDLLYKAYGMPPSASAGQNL

[7] = target: PRMT1 C109 (Q99873) (Homo sapiens, UniProt Q99873); conditions: for isoTOP-ABPP reactivity ratio, Q99873_C109 / isoTOP-ABPP reactivity profile ratio, Q99873_C109: 500 μm;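 on isoTOP-ABPP reactivity profile ratio, Q99873 C109: Heavy/light ratio DMSO over fragment-treated so higher means more cysteine engagement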
PRMT1 C109 (Q99873), sequence (Q99873 whole entry, the tested form may be a part): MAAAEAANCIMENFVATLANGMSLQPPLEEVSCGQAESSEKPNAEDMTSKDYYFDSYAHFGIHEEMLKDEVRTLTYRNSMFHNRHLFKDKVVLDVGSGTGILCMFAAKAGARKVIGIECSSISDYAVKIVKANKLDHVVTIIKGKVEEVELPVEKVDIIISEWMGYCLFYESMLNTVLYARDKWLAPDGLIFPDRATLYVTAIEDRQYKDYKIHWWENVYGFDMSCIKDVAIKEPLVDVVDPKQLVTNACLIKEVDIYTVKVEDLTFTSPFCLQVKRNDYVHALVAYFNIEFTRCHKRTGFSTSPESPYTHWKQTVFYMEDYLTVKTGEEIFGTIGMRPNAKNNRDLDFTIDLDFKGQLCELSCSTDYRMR

[8] = target: T3, ACAT1 C126 (P24752) (Homo sapiens, UniProt P24752); conditions: 500 μm
T3 sequence (P24752 34-427): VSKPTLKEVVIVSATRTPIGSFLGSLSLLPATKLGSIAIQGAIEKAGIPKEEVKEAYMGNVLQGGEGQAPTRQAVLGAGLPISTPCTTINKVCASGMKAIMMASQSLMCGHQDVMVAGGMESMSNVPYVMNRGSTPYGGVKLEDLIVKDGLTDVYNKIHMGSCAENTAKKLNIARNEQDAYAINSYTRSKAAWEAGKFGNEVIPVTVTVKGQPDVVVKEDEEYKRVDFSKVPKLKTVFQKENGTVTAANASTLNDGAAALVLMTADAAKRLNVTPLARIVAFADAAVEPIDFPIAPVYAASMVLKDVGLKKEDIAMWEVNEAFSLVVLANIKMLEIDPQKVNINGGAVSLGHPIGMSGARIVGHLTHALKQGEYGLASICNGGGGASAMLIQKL

[9] = target: T4, ACAT1 C119 (P24752) (Homo sapiens, UniProt P24752); conditions: 500 μm
T4 sequence (P24752 34-427): T3 sequence (P24752 34-427)

[10] = target: XPO1 C528 (O14980) (Homo sapiens, UniProt O14980); conditions: 500 μm
XPO1 C528 (O14980), sequence (O14980 whole entry): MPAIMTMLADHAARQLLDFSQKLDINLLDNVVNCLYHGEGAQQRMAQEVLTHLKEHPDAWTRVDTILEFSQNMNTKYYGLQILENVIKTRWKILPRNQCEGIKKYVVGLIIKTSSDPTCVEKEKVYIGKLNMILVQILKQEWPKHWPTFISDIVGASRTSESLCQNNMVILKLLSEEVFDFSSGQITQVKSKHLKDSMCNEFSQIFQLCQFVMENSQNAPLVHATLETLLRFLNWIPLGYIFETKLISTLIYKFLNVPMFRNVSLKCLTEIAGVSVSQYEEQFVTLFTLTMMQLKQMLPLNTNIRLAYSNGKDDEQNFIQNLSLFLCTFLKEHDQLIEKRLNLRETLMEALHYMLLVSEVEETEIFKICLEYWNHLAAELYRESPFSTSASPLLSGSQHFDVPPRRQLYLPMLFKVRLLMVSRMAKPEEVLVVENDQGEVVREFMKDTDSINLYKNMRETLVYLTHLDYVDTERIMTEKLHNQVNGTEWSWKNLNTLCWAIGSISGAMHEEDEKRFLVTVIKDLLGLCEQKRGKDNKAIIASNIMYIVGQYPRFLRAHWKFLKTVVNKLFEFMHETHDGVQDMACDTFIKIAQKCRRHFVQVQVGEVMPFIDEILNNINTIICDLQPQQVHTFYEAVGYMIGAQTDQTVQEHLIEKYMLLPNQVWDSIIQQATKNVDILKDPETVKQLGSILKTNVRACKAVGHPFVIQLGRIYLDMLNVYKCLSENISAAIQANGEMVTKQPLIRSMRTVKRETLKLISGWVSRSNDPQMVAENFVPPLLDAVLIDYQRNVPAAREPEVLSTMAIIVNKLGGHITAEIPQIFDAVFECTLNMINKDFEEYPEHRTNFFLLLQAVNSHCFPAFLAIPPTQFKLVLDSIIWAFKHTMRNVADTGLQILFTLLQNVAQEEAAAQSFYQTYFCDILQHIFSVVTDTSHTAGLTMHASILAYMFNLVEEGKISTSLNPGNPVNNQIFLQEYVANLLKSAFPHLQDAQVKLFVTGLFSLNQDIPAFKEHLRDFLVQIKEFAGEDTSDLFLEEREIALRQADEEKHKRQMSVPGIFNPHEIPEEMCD

XPO1 C34 (O14980), sequence (O14980 whole entry): as above

isoTOP-ABPP reactivity ratio, O14980_C34 ([1]; in-vitro_ramos)	isoTOP-ABPP reactivity ratio, O14980_C34 ([1]; in-vitro_ramos_231)	isoTOP-ABPP reactivity ratio, Q15084_C190 ([4]; in-vitro_ramos_231)	isoTOP-ABPP reactivity ratio, Q8TAQ2_C145 ([5]; in-vitro_ramos)	isoTOP-ABPP reactivity ratio, Q8TAQ2_C145 ([5]; in-vitro_ramos_231)	isoTOP-ABPP reactivity ratio, P00813_C75 [6]	isoTOP-ABPP reactivity ratio, Q99873_C109 ([7]; in-vitro_ramos)	isoTOP-ABPP reactivity ratio, Q99873_C109 ([7]; in-vitro_ramos_231)	isoTOP-ABPP reactivity ratio, P24752_C126 ([8]; in-vitro_ramos_231)	isoTOP-ABPP reactivity ratio, P24752_C119 ([9]; in-vitro_ramos)	isoTOP-ABPP reactivity ratio, P24752_C119 ([9]; in-vitro_ramos_231)	SMILES	also measured
1.1	0.8	0.9	1.1	0.9	0.9	1.3	0.8	0.9	0.9	0.8	C=CC(=O)Nc1cc(C)c(Br)cc1C [compound 40]	isoTOP-ABPP reactivity ratio, Q96GG9_C115 [2]: 0.9; isoTOP-ABPP reactivity ratio, P40763_C259 ([3]; in-vitro_ramos): 1.4; isoTOP-ABPP reactivity ratio, Q15084_C190 ([4]; in-vitro_ramos): 1.7
2.0	3.1	1.0	2.8	1.8	1.1	0.9	0.9	1.0	0.8	1.0	Cc1ccc(C=C(C#N)C(=O)NCCN2CCOCC2)cc1 [compound 41]	isoTOP-ABPP reactivity ratio, P40763_C259 ([3]; in-vitro_ramos_231): 0.9; isoTOP-ABPP reactivity ratio, O14980_C528 ([10]; in-vitro_ramos_231): 0.6; isoTOP-ABPP reactivity ratio, P24752_C126 ([8]; in-vitro_ramos): 0.9
–	–	–	–	–	–	–	–	–	–	–	O=C(CCl)Nc1cccc2ncccc12 [compound 51]	isoTOP-ABPP reactivity profile ratio, O14980_C34 ([1]; in-vitro_ramos): 1.0; isoTOP-ABPP reactivity profile ratio, O14980_C34 ([1]; in-vitro_ramos_231): 0.9; isoTOP-ABPP reactivity profile ratio, Q96GG9_C115 [2]: 0.8; isoTOP-ABPP reactivity profile ratio, Q15084_C190 ([4]; in-vitro_ramos): 5.6; isoTOP-ABPP reactivity profile ratio, Q8TAQ2_C145 ([5]; in-vitro_ramos): 1.1; isoTOP-ABPP reactivity profile ratio, P00813_C75 [6]: 1.0; isoTOP-ABPP reactivity profile ratio, Q99873_C109 ([7]; in-vitro_ramos): 9.5; isoTOP-ABPP reactivity profile ratio, Q99873_C109 ([7]; in-vitro_ramos_231): 0.9; blockade of IA-alkyne labeling of C109 of PRMT1 ([7]; competitive isoTOP-ABPP): blocking IA-alkyne labeling; isoTOP-ABPP reactivity profile ratio, O14980_C528 ([10]; in-vitro_ramos): 0.9; isoTOP-ABPP reactivity profile ratio, P24752_C126 ([8]; in-vitro_ramos): 1.2; isoTOP-ABPP reactivity profile ratio, P24752_C126 ([8]; in-vitro_ramos_231): 1.0; isoTOP-ABPP reactivity profile ratio, P24752_C119 ([9]; in-vitro_ramos): 0.9; isoTOP-ABPP reactivity profile ratio, P24752_C119 ([9]; in-vitro_ramos_231): 0.8

Source: patent publication US10670605B2, “Cysteine reactive probes and uses thereof” (The Scripps Research Institute, priority 2015, dated 2020)
